Test results as given in EP1298214A2, “Plant thioesterases” (Calgene LLC, priority 1990, dated 1991).

Legend:
[1] = biological target: T1, bay thioesterase enzyme purified from developing seeds (Umbellularia californica, UniProt Q41635); experiment: Substrate analysis of bay thioesterase purified from developing seeds; assay type: biochemical; conditions: enzyme purified from developing seeds as in Example 2
T1 construct: The cotyledons from such seeds are dissected from the other seed parts and stored frozen at -70°; This comprises the source tissue for enzyme extraction; from tissue; host or cells: immature seed cotyledons of Umbellularia californica
T1 sequence (Q41635 84-382): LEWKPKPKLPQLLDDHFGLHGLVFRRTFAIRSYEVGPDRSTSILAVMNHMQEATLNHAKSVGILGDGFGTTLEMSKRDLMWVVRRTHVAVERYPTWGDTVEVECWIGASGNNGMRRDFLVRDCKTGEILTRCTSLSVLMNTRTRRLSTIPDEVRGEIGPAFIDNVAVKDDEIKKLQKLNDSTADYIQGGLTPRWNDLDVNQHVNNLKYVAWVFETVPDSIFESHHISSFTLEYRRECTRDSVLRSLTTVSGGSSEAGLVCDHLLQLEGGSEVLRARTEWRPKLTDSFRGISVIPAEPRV
Description: (§1) To assay for C12 thioesterase activity the following mixture is incubated at 30° for 30 min: "buffer" comprising 7mM KH2PO4-KOH pH 8, 20% v/v glycerol, 1mM dithiothreitol (DTT), 0.1% v/v Triton X100; sample to be tested for activity in the same or similar buffer as the "extraction buffer" described in Example 2; and 5µl of ^14C-radiolabeled lauroyl-ACP substrate for a total volume of 100µl and final lauroyl-ACP concentration of 0.5µM. Lauroyl-ACP substrate is prepared according to the method of Rock et al (Methods in Enzymology (1981) 72:397-403), using ACP prepared from Escherichia coli by the method of Rock and Cronan (Methods in Enzymology (1981) 71:341-351). The laurate is radiolabeled in the carboxylate group at a specific radioactivity of 50-60µCi/µmol.
(§2) The reaction is stopped by adding 0.5ml cold (0°) 10% v/v acetic acid. The fatty acid product of the hydrolytic enzyme action is extracted away from the unhydrolyzed substrate by adding 1ml diethyl ether and mixing vigorously. After settling for a few minutes the upper ether layer is transferred to 5ml scintillation fluid for determination of radioactivity by liquid scintillation spectrometry. Additional ether extractions may be performed to recover remaining traces of the reaction product for more accurate quantitation of the enzyme activity if desired. The amount of ether-extracted radioactivity is a direct measure of C12-preferring acyl-ACP thioesterase activity, provided the amount of enzyme is not sufficient to hydrolyze more than about 25% of the substrate. With greater activity than this the relationship between radioactivity in the ether layer and the quantity of enzyme becomes markedly nonlinear. The enzyme preparation must then be diluted appropriately to bring the activity into the linear range of the assay.
The dialyzed material is then applied to a column of immobilized ACP (2.5cm diameter x 10.5cm bed height). This column is manufactured by coupling Escherichia coli ACP to cyanogen bromide-activated Sepharose 4B according to instructions supplied by the manufacturer of this column packing (Pharmacia Inc., Piscataway, NJ). The E. coli ACP is prepared as referenced in Example 1. Before use the column is equilibrated with ACP1 buffer. The dialyzed material from the cation exchange column is applied at 1-1.3ml/min, and fractions of 8ml volume are collected throughout the procedure. Fractions are assayed for C12-preferring acyl-ACP thioesterase activity, and for total protein content using a Cobmassie Blue assay method (Bio-Rad Inc., Richmond, CA, catalog no. 500-0001). A substantial amount of protein washes through the column without binding. Almost all of the C12-preferring acyl-ACP thioesterase activity binds. […]

[2] = system: pET3a-THI0 E. coli lysate (truncated Bay 12:0-ACP thioesterase); experiment: Acyl-ACP hydrolysis by lysate of E. coli expressing truncated Bay thioesterase cDNA; assay type: biochemical, Umbellularia californica; conditions: 1 hour induction with 1mM IPTG
Description: as §1, §2
A pET3a vector (Rosenberg, et al., Gene (1987) 56:125-135) is used in an E. coil strain BL21 (PE3) (Studier and Moffat, J. Mol. Biol. (1986) 189:113-130) host for this study. The pET3a vector contains a promoter and 33 bp of the 5' reading frame of bacteriophase T7. T7 polymerase is under the regulatory control of an isopropyl-b-D-thiogalactopyranoside (IPTG)-inducible lac UV5 promoter found in the E. coli BL21 (DE3) strain. Thus, by the addition of IPTG to E. coli BL21 (DE3) transformed with pET3a, the T7 promoter will be activated.
Constructs are prepared containing the truncated cDNA of Fig. 2 fused in reading frame by deletion of the BamHI/EcoRI fragment and replacement of the thioesterase sequence. E. coli are transformed with pET3a constructs containing the thioesterase (pET3a-THI0) and unmodified pET3a as a control. The E. coli are grown at 37°C in liquid medium and expression is induced by the addition of 1mM IPTG. […]

Substance	Hydrolysis Activity (mean cpm in ether extract) [1]	Hydrolysis Activity (mean cpm in ether extract) [2]
14:0-ACP	69 cpm	1035 cpm
16:0-ACP	12 cpm	1900 cpm
decanoyl-ACP [10:0-ACP]	0 cpm	621 cpm
lauroyl-ACP [12:0-ACP]	1261 cpm	2127 cpm
